Laboratory results published in patent publication US20240132513A1, “BENZAZEPINE DERIVATIVES, COMPOSITIONS, AND METHODS FOR TREATING COGNITIVE IMPAIRMENT” (AGENEBIO, INC., priority 2022, published 2024).
Like-named read-outs stand apart in the source and are kept apart here.

How the values were obtained:
α5β3γ2 GABAA R = α5β3γ2 GABAA R (Homo sapiens, UniProt P18507+P31644); assay: Binding activity on GABAA R: inhibition of [3H]Ro15-1788 binding, α5 containing receptor
In short: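 Displacement of [3H]Ro15-1788 (flumazenil) measured at 4 °C over 1 h using 0.2 mg/ml membrane protein from Ltk cells carrying α5β3γ2 GABAA receptors, expression induced with 0.5 μM dexamethasone for 1 day; buffer pH 7.4 KH2PO4/EDTA/KCl. 10 μM diazepam defined nonspecific binding; filter-trapped radioactivity counted, in triplicate.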

GABAA R (α5β2γ2) = target: T1, GABAA R (α5β2γ2) (Homo sapiens, UniProt P18507+P31644); assay: Positive allosteric modulator activity: potentiation of EC20 GABA current in oocytes; format: cell-based
T1 construct: expressed in transfected cells
T1 sequence (P31644 32-462): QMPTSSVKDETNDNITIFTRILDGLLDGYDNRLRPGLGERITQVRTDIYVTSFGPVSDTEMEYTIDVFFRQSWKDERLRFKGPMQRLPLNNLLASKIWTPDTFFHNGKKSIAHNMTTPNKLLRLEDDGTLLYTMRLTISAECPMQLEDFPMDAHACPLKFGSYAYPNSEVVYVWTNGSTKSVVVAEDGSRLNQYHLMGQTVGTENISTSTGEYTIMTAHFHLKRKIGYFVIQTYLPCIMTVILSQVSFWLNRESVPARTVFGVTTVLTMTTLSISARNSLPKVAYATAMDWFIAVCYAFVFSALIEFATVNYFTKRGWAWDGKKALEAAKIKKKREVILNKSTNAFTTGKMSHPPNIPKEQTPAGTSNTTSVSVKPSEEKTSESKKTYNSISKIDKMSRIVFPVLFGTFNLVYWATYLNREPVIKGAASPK
T1 sequence (P47870 25-512 partner limits assumed): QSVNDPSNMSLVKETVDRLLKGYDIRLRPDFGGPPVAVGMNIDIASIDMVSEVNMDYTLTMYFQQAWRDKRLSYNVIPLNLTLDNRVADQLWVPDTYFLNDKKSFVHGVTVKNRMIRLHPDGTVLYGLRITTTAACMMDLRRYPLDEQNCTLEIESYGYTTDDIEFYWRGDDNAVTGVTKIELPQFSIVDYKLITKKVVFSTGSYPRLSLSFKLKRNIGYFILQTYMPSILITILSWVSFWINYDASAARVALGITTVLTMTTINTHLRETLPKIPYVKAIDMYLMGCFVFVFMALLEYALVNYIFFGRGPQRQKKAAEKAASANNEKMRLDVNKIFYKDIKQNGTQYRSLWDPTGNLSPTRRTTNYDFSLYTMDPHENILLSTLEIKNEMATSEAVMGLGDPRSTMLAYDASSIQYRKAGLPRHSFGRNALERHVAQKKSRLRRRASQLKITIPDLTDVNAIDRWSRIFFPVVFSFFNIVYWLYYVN
T1 sequence (P18507 40-475): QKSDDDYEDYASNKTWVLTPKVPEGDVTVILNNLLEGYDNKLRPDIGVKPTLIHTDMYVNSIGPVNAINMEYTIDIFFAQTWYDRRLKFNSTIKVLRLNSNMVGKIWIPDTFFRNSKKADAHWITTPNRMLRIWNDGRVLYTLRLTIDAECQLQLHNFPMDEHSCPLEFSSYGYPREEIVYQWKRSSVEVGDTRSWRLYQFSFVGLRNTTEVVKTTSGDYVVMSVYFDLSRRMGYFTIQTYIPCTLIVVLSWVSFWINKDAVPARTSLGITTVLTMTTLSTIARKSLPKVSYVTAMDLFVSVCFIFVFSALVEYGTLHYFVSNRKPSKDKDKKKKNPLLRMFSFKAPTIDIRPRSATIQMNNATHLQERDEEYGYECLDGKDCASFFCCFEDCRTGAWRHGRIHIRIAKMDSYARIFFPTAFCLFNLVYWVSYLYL
In short: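 Xenopus oocytes injected with 1 ng α5:β2:γ2 cDNA (1:1:10 by weight), tested day 2, voltage-clamped at −60 mV under MBS superfusion.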

[1] = read-out: GABA α5 Functional Data: potentiation, @ 100 nM, EC20 GABA, ranges of the column heads
[2] = ranges of the column heads, [3H]Ro15-1788, Ltk cell membranes
[3] = read-out: GABA α5 Functional Data: potentiation

α5β3γ2 GABAA R, sequence (P31644 32-462): as the sequence (P31644 32-462) above
α5β3γ2 GABAA R, sequence (P28472 26-473 partner): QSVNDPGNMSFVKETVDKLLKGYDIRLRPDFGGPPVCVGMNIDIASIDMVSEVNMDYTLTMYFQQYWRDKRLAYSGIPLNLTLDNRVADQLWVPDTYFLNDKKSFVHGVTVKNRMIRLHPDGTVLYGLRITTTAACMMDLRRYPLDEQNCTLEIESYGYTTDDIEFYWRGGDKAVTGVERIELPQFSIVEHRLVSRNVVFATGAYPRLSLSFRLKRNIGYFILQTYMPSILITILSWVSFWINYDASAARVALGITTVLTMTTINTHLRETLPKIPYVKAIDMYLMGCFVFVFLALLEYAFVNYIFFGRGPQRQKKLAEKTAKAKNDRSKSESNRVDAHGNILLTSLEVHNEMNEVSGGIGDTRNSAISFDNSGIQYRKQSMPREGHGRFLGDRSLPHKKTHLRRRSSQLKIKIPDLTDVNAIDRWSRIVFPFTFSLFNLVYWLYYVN
α5β3γ2 GABAA R, sequence (P18507 40-475): as the sequence (P18507 40-475) above

Row | Ki (α5β3γ2 GABAA R; [2]) [nM] | activation at 0.1 µM (GABAA R (α5β2γ2); [3]) [%] | SMILES | Ki (α5β3γ2 GABAA R) [nM] | activation at 0.1 µM (GABAA R (α5β2γ2); [1]) [%]
1 |  |  | COc1ccc2c(c1)-c1nn(C)cc1Cc1c(-c3noc(C(C)(C)OC)n3)ncn1-2 [Compound 185] | < 100 | 20 to 50
2 |  |  | COc1ccc2c(c1)-c1[nH]ncc1Cc1c(-c3noc(C4COCCO4)n3)ncn1-2 (stereo not drawn) [Compound 187] | < 100 | 20 to 50
3 | < 100 | > 50 | COc1ccc2c(c1)-c1[nH]ncc1Cc1c(-c3noc(C4(OC)CC4)n3)ncn1-2 [Compound 188] |  | 
4 |  |  | COCC1COC(c2ncn3c2Cc2cn(C)nc2-c2cc(Cl)ccc2-3)=N1 (stereo not drawn) [Compound 189] | < 100 | 20 to 50
5 |  |  | Cn1cc2c(n1)-c1cc(Cl)ccc1-n1cnc(-c3cnn(Cc4ccccn4)c3)c1C2 [Compound 190] | < 100 | 20 to 50
6 | < 100 | 20 to 50 | CCn1cc2c(n1)-c1cc(Cl)ccc1-n1cnc(-c3nc(C4CCOC4)no3)c1C2 (stereo not drawn) [Compound 192] |  | 
7 |  |  | CC(C)c1noc(-c2ncn3c2Cc2cn(CC4CCCO4)nc2-c2cc(Cl)ccc2-3)n1 (stereo not drawn) [Compound 193] | < 100 | 20 to 50
8 |  |  | CCn1cc2c(n1)-c1cc(Cl)ccc1-n1cnc(-c3noc(COC4CCCC4)n3)c1C2 [Compound 194] | < 100 | 20 to 50
9 |  |  | CCn1cc2c(n1)-c1cc(Cl)ccc1-n1cnc(-c3noc(C4COCCO4)n3)c1C2 (stereo not drawn) [Compound 195] | < 100 | 5 to 20
10 |  |  | CCn1cc2c(n1)-c1cc(Cl)ccc1-n1cnc(-c3noc(COC(C)(C)C)n3)c1C2 [Compound 197] | < 100 | 5 to 20
11 | < 100 | 20 to 50 | CCn1cc2c(n1)-c1cc(Cl)ccc1-n1cnc(-c3noc(C4(OC)CC4)n3)c1C2 [Compound 198] |  | 
12 | < 100 | 20 to 50 | FC(F)(F)c1noc(-c2ncn3c2Cc2cn(CC4CCOC4)nc2-c2cc(Cl)ccc2-3)n1 (stereo not drawn) [Compound 200] |  | 
13 |  |  | CC(C)c1noc(-c2ncn3c2Cc2cn(CC4CCOC4)nc2-c2cc(Cl)ccc2-3)n1 (stereo not drawn) [Compound 201] | < 100 | 5 to 20
14 |  |  | COc1ccc2c(c1)-c1nn(C)cc1Cc1c(-c3noc(C4COC4)n3)ncn1-2 [Compound 202] | < 100 | 20 to 50
15 |  |  | COc1ccc2c(c1)-c1nn(C)cc1Cc1c(-c3noc(C4(OC)CC4)n3)ncn1-2 [Compound 203] | < 100 | 20 to 50
16 |  |  | COc1ccc2c(c1)-c1nn(C)cc1Cc1c(-c3noc(C4(F)CC4)n3)ncn1-2 [Compound 205] | < 100 | 20 to 50
17 |  |  | COc1ccc2c(c1)-c1c(cnn1C)Cc1c(-c3noc(C4(F)CC4)n3)ncn1-2 [Compound 206] | < 100 | 20 to 50
18 |  |  | COc1ccc2c(c1)-c1nn(C)cc1Cc1c(-c3noc(C4COCCO4)n3)ncn1-2 (stereo not drawn) [Compound 207] | < 100 | 20 to 50
19 |  |  | Cn1cc2c(n1)-c1cc(Cl)ccc1-n1cnc(-c3cnn(Cc4cccnc4)c3)c1C2 [Compound 208] | < 100 | 5 to 20
20 |  |  | Cc1nnc(-c2ncn3c2Cc2cn(C)nc2-c2cc(Cl)ccc2-3)o1 [Compound 209] | < 100 | 20 to 50

Row | Ki (α5β3γ2 GABAA R; [2]) [nM] | activation at 0.1 µM (GABAA R (α5β2γ2); [3]) [%] | SMILES | Ki (α5β3γ2 GABAA R) [nM] | activation at 0.1 µM (GABAA R (α5β2γ2); [1]) [%]
21 |  |  | Cn1cc2c(n1)-c1cc(Cl)ccc1-n1cnc(-c3nnc(C(F)(F)F)o3)c1C2 [Compound 210] | < 100 | 20 to 50
22 |  |  | Cn1cc2c(n1)-c1cc(Cl)ccc1-n1cnc(-c3noc(COC4CCCC4)n3)c1C2 [Compound 211] | < 100 | 20 to 50
23 | < 100 | 5 to 20 | Cn1cc2c(n1)-c1cc(Cl)ccc1-n1cnc(-c3nnc(C4CCOC4)o3)c1C2 (stereo not drawn) [Compound 212] |  | 
24 |  |  | Cn1cc2c(n1)-c1cc(Cl)ccc1-n1cnc(-c3noc(C4COCCO4)n3)c1C2 (stereo not drawn) [Compound 213] | < 100 | > 50
25 |  |  | COC(C)(C)c1nc(-c2ncn3c2Cc2cn(C)nc2-c2cc(Cl)ccc2-3)no1 [Compound 214] | < 100 | > 50
26 |  |  | Cn1cc2c(n1)-c1cc(Cl)ccc1-n1cnc(-c3noc(COC(C)(C)C)n3)c1C2 [Compound 215] | < 100 | 20 to 50
27 |  |  | COC1(c2nc(-c3ncn4c3Cc3cn(C)nc3-c3cc(Cl)ccc3-4)no2)CC1 [Compound 216] | < 100 | 5 to 20
28 |  |  | Cn1cc2c(n1)-c1cc(Cl)ccc1-n1cnc(-c3noc(COCC(F)(F)F)n3)c1C2 [Compound 217] | < 100 | 20 to 50
29 |  |  | Cn1cc2c(n1)-c1cc(Cl)ccc1-n1cnc(-c3noc(C4(F)CC4)n3)c1C2 [Compound 218] | < 100 | 20 to 50
30 |  |  | Cn1cc2c(n1)-c1cc(Cl)ccc1-n1cnc(-c3nc(C4CCOCC4)no3)c1C2 [Compound 219] | < 100 | 5 to 20
31 |  |  | COc1ccc2c(c1)-c1nn(C)cc1Cc1c(-c3nc(C4CCOCC4)no3)ncn1-2 [Compound 220] | < 100 | 20 to 50
32 |  |  | Cn1cc2c(n1)-c1cc(Cl)ccc1-n1cnc(-c3cnn(CC4CCCO4)c3)c1C2 (stereo not drawn) [Compound 222] | < 100 | 5 to 20
33 | < 100 | 5 to 20 | Cn1cc2c(n1)-c1cc(Cl)ccc1-n1cnc(-c3noc(C4COC4)n3)c1C2 [Compound 223] |  | 
34 |  |  | Clc1ccc2c(c1)-c1nn(CC3COC3)cc1Cc1c(-c3nc(C4CC4)no3)ncn1-2 [Compound 224] | < 100 | 20 to 50
35 |  |  | Cn1cc2c(n1)-c1cc(Cl)ccc1-n1cnc(-c3noc(C4(C)COC4)n3)c1C2 [Compound 225] | < 100 | 20 to 50
36 | < 100 | 5 to 20 | COc1ccc2c(c1)-c1nn(CC3COC3)cc1Cc1c(-c3nc(C4CC4)no3)ncn1-2 [Compound 226] |  | 
37 |  |  | FC(F)(F)c1noc(-c2ncn3c2Cc2cn(C4CCOC4)nc2-c2cc(Cl)ccc2-3)n1 (stereo not drawn) [Compound 228] | < 100 | 5 to 20
38 |  |  | Clc1ccc2c(c1)-c1nn(CC3CCCO3)cc1Cc1c(-c3cnn(Cc4ccccc4)c3)ncn1-2 (stereo not drawn) [Compound 230] | < 100 | 5 to 20
39 |  |  | COc1ccc2c(c1)-c1nn(CC3CCCO3)cc1Cc1c(-c3nc(C(C)C)no3)ncn1-2 (stereo not drawn) [Compound 231] | < 100 | 5 to 20
40 | < 100 | 5 to 20 | COC(C)(C)c1noc(-c2ncn3c2Cc2cn(C)nc2-c2cc(Cl)ccc2-3)n1 [Compound 233] |  | 

Row | Ki (α5β3γ2 GABAA R; [2]) [nM] | activation at 0.1 µM (GABAA R (α5β2γ2); [3]) [%] | SMILES | Ki (α5β3γ2 GABAA R) [nM] | activation at 0.1 µM (GABAA R (α5β2γ2); [1]) [%]
41 |  |  | CCn1cc2c(n1)-c1cc(OC)ccc1-n1cnc(-c3nc(COC)no3)c1C2 [Compound 236] | < 100 | 20 to 50
42 |  |  | Cn1cc2c(n1)-c1cc(Cl)ccc1-n1cnc(-c3nc(C4COC4)no3)c1C2 [Compound 237] | < 100 | 20 to 50
43 |  |  | COc1ccc2c(c1)-c1nn(C)cc1Cc1c(-c3nc(C4COC4)no3)ncn1-2 [Compound 239] | < 100 | 20 to 50
44 |  |  | CC(C)OCc1noc(-c2ncn3c2Cc2cn(C)nc2-c2cc(Cl)ccc2-3)n1 [Compound 242] | < 100 | 20 to 50
45 | < 100 | 5 to 20 | CCOCc1nc(-c2ncn3c2Cc2cn(C)nc2-c2cc(Cl)ccc2-3)no1 [Compound 243] |  | 
46 |  |  | COc1ccc2c(c1)-c1c(cnn1CC1CCCO1)Cc1c(-c3nc(C(C)C)no3)ncn1-2 (stereo not drawn) [Compound 244] | < 100 | 5 to 20
47 |  |  | COc1ccc2c(c1)-c1nn(CC3CCOC3)cc1Cc1c(-c3nc(C(C)C)no3)ncn1-2 (stereo not drawn) [Compound 245] | < 100 | 20 to 50
48 |  |  | COc1ccc2c(c1)-c1nn(C3CCOC3)cc1Cc1c(-c3nc(C4CC4)no3)ncn1-2 (stereo not drawn) [Compound 247] | < 100 | 20 to 50
49 |  |  | CCn1cc2c(n1)-c1cc(OC)ccc1-n1cnc(-c3noc(CN(C)C)n3)c1C2 [Compound 248] | < 100 | 20 to 50
50 |  |  | COc1ccc2c(c1)-c1c(cnn1CC1CCOC1)Cc1c(-c3nc(C4CC4)no3)ncn1-2 (stereo not drawn) [Compound 249] | < 100 | 5 to 20
51 | < 100 | > 50 | Cn1cc2c(n1)-c1cc(Cl)ccc1-n1cnc(-c3nc(CN4CCOCC4)no3)c1C2 [Compound 250] |  | 
52 | < 100 | 5 to 20 | CC(C)c1noc(-c2ncn3c2Cc2cn(CC4CCOCC4)nc2-c2cc(Cl)ccc2-3)n1 [Compound 251] |  | 
53 |  |  | COc1ccc2c(c1)-c1nn(C)cc1Cc1c(-c3nc([C@H]4CCOC4)no3)ncn1-2 [Compound 252] | < 100 | 20 to 50
54 |  |  | Cn1cc2c(n1)-c1cc(Cl)ccc1-n1cnc(-c3nc([C@H]4CCOC4)no3)c1C2 [Compound 253] | < 100 | 5 to 20
55 |  |  | CCn1cc2c(n1)-c1cc(OC)ccc1-n1cnc(-c3noc(COCC(F)(F)F)n3)c1C2 [Compound 254] | < 100 | 20 to 50
56 |  |  | CCn1cc2c(n1)-c1cc(OC)ccc1-n1cnc(-c3noc(C(C)(C)OC)n3)c1C2 [Compound 255] | < 100 | 5 to 20
57 |  |  | COc1ccc2c(c1)-c1nn(C)cc1Cc1c(-c3noc([C@@H]4CCOC4)n3)ncn1-2 [Compound 256] | < 100 | 5 to 20
58 |  |  | COc1ccc2c(c1)-c1nn(C)cc1Cc1c(-c3noc([C@H]4CCOC4)n3)ncn1-2 [Compound 257] | < 100 | 20 to 50
59 |  |  | COc1ccc2c(c1)-c1nn(C)cc1Cc1c(-c3noc([C@H]4CCCO4)n3)ncn1-2 [Compound 258] | < 100 | 5 to 20
60 |  |  | COc1ccc2c(c1)-c1nn(C)cc1Cc1c(-c3noc([C@@H]4CCCO4)n3)ncn1-2 [Compound 259] | < 100 | 5 to 20
